target: T1, PD-1/PD-L1 (Homo sapiens, UniProt Q9NZQ7); test: PD1-PDL1 HTRF assay; conditions: PD-1/PD-L1 homogenous time-resolved fluorescence (HTRF) binding assay; Tag1-PDL1 5 nM, Tag2-PD1 50 nM
T1 construct: purchased CisBio
From the text: The CisBio HTRF assay kit, purchased from CisBio only, was employed to determine the IC50 values of compounds. The PD1-PDL1 HTRF assay measures the interactions between the two proteins, PD1 and PDL1. The interaction is detected by using anti-Tag1 labeled with Europium (HTRF donor) which binds to PDL1 and anti-Tag2 labeled with XL665 (HTRF acceptor) which binds to PD1. When the two antibodies are in proximity, the excitation of the donor fluorophore results in FRET emission from the acceptor fluorophore. The presence of inhibitors for such an interaction result in reduction of HTRF signal.
The assay was conducted in 96-well white assay plates. All the reagents, including Tag1-PDL1, Tag2-PD1, Anti-Tag1-PDL1, Anti-Tag2-PD1 were thawed and diluted with PPI Europium Detection buffer to achieve the desired concentration as per the manufacturer's protocol. A 1000 μM stock solution of test inhibitors was prepared in DMSO. The stock solution was diluted in DMSO to prepare 8 concentrations (1000-0.001 μM). These stock solutions were further diluted in PPI Europium detection buffer to prepare 8 working stock solutions (100-0.0001 μM). To the 96-well plate, 2 μL of the test inhibitor working stock solutions were added followed by 4 μL of Tag1-PDL1 (5 nM) and 4 μL of Tag2-PD1 (50 nM). The plate was incubated at room temperature for 15 min. Subsequently, 10 μL of pre-mixed Anti-Tag1-PDL1 and Anti-Tag2-PD1 solution was added. The plate was sealed and incubated at room temperature for 1 h. The HTRF signal was read on Perkin Elmer Envision plate reader using excitation wavelength of 320 nm, emission wavelengths of 620 nm and 665 nm. Results were obtained by calculating the ratio of signal from acceptor at 665 nm to that of signal from donor at 620 nm multiplied by […]. The IC50 values were determined by the Hill equation using GraphPad Prism software.

T1 sequence (Q9NZQ7 19-238 limits assumed): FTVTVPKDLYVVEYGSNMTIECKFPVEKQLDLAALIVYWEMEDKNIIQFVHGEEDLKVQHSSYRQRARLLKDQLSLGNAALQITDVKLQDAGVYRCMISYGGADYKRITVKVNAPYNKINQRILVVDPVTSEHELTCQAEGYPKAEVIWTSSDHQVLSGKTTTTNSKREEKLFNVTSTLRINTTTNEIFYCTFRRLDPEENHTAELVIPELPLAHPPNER

| SMILES | IC50 [µM] |
| --- | --- |
| Cc1c(-c2ccc3c(c2)OCCO3)cccc1-c1ccn2c(-c3ccc(C(=O)N4CCC[C@H]4C(=O)O)cc3)cnc2c1 [Example 43, (4-(7-(3-(2,3-dihydrobenzo[b][1,4]dioxin-6-yl)-2-methylphenyl)imidazo[1,2-a]pyridin-3-yl)benzoyl)-L-proline] | 0.1 to 1 |
| Cc1c(-c2ccc(CNCCO)cc2)cccc1-c1cccc(-c2ccn3c(CNC[C@@H]4CCC(=O)N4)nnc3c2)c1C [Example 86, (S)-5-((((7-(4″-(((2-hydroxyethyl)amino)methyl)-2,2′-dimethyl-[1,1′:3′,1″-terphenyl]-3-yl)-[1,2,4]triazolo[4,3-a]pyridin-3-yl)methyl)amino)methyl)pyrrolidin-2-one] | 0.01 to 0.1 |
| Cc1c(-c2ccc3c(c2)OCCO3)cccc1-c1ccn2c(-c3ccc(CNCC(O)CC(=O)O)cc3)cnc2c1 (stereo not drawn) [Example 30, 4-((4-(7-(3-(2,3-dihydrobenzo[b][1,4]dioxin-6-yl)-2-methylphenyl)imidazo[1,2-a]pyridin-3-yl)benzyl)amino)-3-hydroxybutanoic acid] | 0.1 to 1 |
| Cc1c(-c2ccc(CNCCO)cc2)cccc1-c1cccc(-c2ccn3c(-c4ccc(CN5CCC[C@H]5C(=O)O)cc4)nnc3c2)c1C [Example 64, (4-(7-(4″-(((2-hydroxyethyl)amino)methyl)-2,2′-dimethyl-[1,1′:3′,1″-terphenyl]-3-yl)-[1,2,4]triazolo[4,3-α]pyridin-3-yl)benzyl)-L-proline] | ≤ 0.01 |
| Cc1c(-c2ccc(CNCCO)cc2)cccc1-c1cccc(-c2ccn3c(-c4ccc(CNCCO)cc4)nnc3c2)c1C [Example 75, 2-((4-(7-(4″-(((2-hydroxyethyl)amino)methyl)-2,2′-dimethyl-[1,1′:3′,1″-terphenyl]-3-yl)-[1,2,4]triazolo[4,3-α]pyridin-3-yl)benzyl)amino)ethan-1-ol] | 0.01 to 0.1 |
| Cc1c(-c2ccccc2)cccc1-c1ccn2c(-c3ccc(CNCC(O)CC(=O)O)cc3)nnc2c1 (stereo not drawn) [Example 55, 3-hydroxy-4-((4-(7-(2-methyl-[1,1′-biphenyl]-3-yl)-[1,2,4]triazolo[4,3-a]pyridin-3-yl)benzyl)amino)butanoic acid] | 0.1 to 1 |
| OCCNCc1ccc(-c2cccc(-c3cccc(-c4ccn5nc(CNCCO)nc5c4)c3Cl)c2Cl)cc1 [Example 104, 2-(((2′,2″-dichloro-3″-(2-(((2-hydroxyethyl)amino)methyl)-[1,2,4]triazolo[1,5-a]pyridin-7-yl)-[1,1′:3′,1″-terphenyl]-4-yl)methyl)amino)ethan-1-ol] | ≤ 0.01 |
| Cc1c(-c2ccccc2)cccc1-c1ccn2c(C#CCN3CCC[C@H]3C(=O)O)cnc2c1 [Example 51, (3-(7-(2-methyl-[1,1′-biphenyl]-3-yl)imidazo[1,2-a]pyridin-3-yl)prop-2-yn-1-yl)-L-proline] | 0.1 to 1 |
| CC(=O)NCCNC(=O)c1ccn(-c2cnc3cc(-c4cccc(-c5ccccc5)c4C)ccn23)n1 [Example 46, N-(2-acetamidoethyl)-1-(7-(2-methyl-[1,1′-biphenyl]-3-yl)imidazo[1,2-a]pyridin-3-yl)-1H-pyrazole-3-carboxamide] | 0.1 to 1 |
| Cc1c(NC(=O)c2ccc(CNCCO)cn2)cccc1-c1cccc(-c2ccn3c(CNCCO)nnc3c2)c1C [Example 92, 5-(((2-hydroxyethyl)amino)methyl)-N-(3′-(3-(((2-hydroxyethyl)amino)methyl)-[1,2,4]triazolo[4,3-a]pyridin-7-yl)-2,2′-dimethyl-[1,1′-biphenyl]-3-yl)picolinamide] | ≤ 0.01 |
| Cc1c(-c2ccc(CNC[C@H]3CCC(=O)N3)cc2)cccc1-c1cccc(-c2ccn3c(-c4ccc(CNC[C@H]5CCC(=O)N5)cc4)nnc3c2)c1C [Example 76, (R)-5-((((2′,2″-dimethyl-3″-(3-(4-(((((R)-5-oxopyrrolidin-2-yl)methyl)amino)methyl)phenyl)-[1,2,4]triazolo[4,3-α]pyridin-7-yl)-[1,1′:3′,1″-terphenyl]-4-yl)methyl)amino)methyl)pyrrolidin-2-one] | 0.01 to 0.1 |
| Cc1c(-c2ccc3c(c2)OCCO3)cccc1-c1ccn2c(-c3ccc(CN4CCC[C@H]4C(=O)O)cc3)nnc2c1 [Example 57, (4-(7-(3-(2,3-dihydrobenzo[b][1,4]dioxin-6-yl)-2-methylphenyl)-[1,2,4]triazolo[4,3-a]pyridin-3-yl)benzyl)-L-proline] | 0.01 to 0.1 |
| Cc1c(-c2ccccc2)cccc1-c1ccn2c(-c3ccc(CN4CCC[C@H]4C(=O)O)cc3)nnc2c1 [Example 53, (4-(7-(2-methyl-[1,1′-biphenyl]-3-yl)-[1,2,4]triazolo [4,3-a]pyridin-3-yl)benzyl)proline] | 0.1 to 1 |
| Cc1c(NC(=O)c2ccc(CNCCO)cn2)cccc1-c1cccc(-c2ccn3c(-c4ccc(CN5CCC[C@@H]5C(=O)O)cc4)nnc3c2)c1C [Example 68, (4-(7-(3′-(5-(((2-hydroxyethyl)amino)methyl)picolinamido)-2,2′-dimethyl-[1,1′-biphenyl]-3-yl)-[1,2,4]triazolo[4,3-a]pyridin-3-yl)benzyl)-D-proline] | ≤ 0.01 |
| Cc1c(-c2ccc3c(c2)OCCO3)cccc1-c1ccn2c(-c3ccc(CN4CCC[C@H]4C(=O)O)cc3)cnc2c1 [Example 28, (4-(7-(3-(2,3-dihydrobenzo[b][1,4]dioxin-6-yl)-2-methylphenyl)imidazo[1,2-a]pyridin-3-yl)benzyl)-L-proline] | 0.1 to 1 |
| Cc1c(-c2ccc3c(c2)OCCO3)cccc1-c1ccn2c(-c3ccc(CN4CCC[C@H]4C(=O)O)cc3)cnc2c1 [Example 37, (4-(7-(3-(2,3-dihydrobenzo[b][1,4]dioxin-6-yl)-2-methylphenyl)imidazo[1,2-a]pyridin-3-yl)benzyl)proline] | 0.1 to 1 |
| COc1nc(-c2cccc(-c3cccc(-c4ccn5c(-c6ccc(CNCCO)cc6)nnc5c4)c3C)c2C)ccc1CNCCO [Example 77, 2-((4-(7-(3′-(5-(((2-hydroxyethyl)amino)methyl)-6-methoxypyridin-2-yl)-2,2′-dimethyl-[1,1′-biphenyl]-3-yl)-[1,2,4]triazolo[4,3-ai]pyridin-3-yl)benzyl)amino)ethan-1-ol] | ≤ 0.01 |
| Cc1c(-c2ccccc2)cccc1-c1ccn2c(-c3ccc(CNCCCO)cc3)cnc2c1 [Example 8, 3-((4-(7-(2-methyl-[1,1′-biphenyl]-3-yl)imidazo[1,2-a]pyridin-3-yl)benzyl)amino)propan-1-ol] | 0.1 to 1 |
| Cc1c(-c2ccn3c(-c4ccc(CN5CCC[C@@H]5C(=O)O)cc4)nnc3c2)cccc1-c1cccc(-c2ccn3c(-c4ccc(CN5CCC[C@@H]5C(=O)O)cc4)nnc3c2)c1C [Example 73, (2′R)-((((2,2′-dimethyl-[1,1′-biphenyl]-3,3′-diyl)bis ([1,2,4]triazolo[4,3-ci]pyridine-7,3-diyl))bis(4,1-phenylene))bis(methylene))di-D-proline] | 0.01 to 0.1 |
| Cc1c(NC(=O)c2ccc(CNCCO)cc2)cccc1-c1cccc(-c2ccn3nc(CNCCO)nc3c2)c1C [Example 101, 4-(((2-hydroxyethyl)amino)methyl)-N-(3′-(2-(((2-hydroxyethyl)amino)methyl)-[1,2,4]triazolo[1,5-a]pyridin-7-yl)-2,2′-dimethyl-[1,1′-biphenyl]-3-yl)benzamide] | ≤ 0.01 |
| OCCNCc1nc2cc(-c3cccc(-c4cccc(-c5ccc(CN6CCC[C@@H]6CO)cc5)c4Cl)c3Cl)ccn2n1 [Example 114, (R)-2-(((7-(2,2′-dichloro-4″-((2-(hydroxymethyl)pyrrolidin-1-yl)methyl)-[1,11:3′,1″-terphenyl]-3-yl)-[1,2,4]triazolo [1,5-a]pyridin-2-yl)methyl)amino)ethan-1-ol] | ≤ 0.01 |
| Cc1c(-c2ccc3c(c2)OCCO3)cccc1-c1ccn2c(-c3ccc(CN4CCC[C@@H]4C(=O)O)cc3)nnc2c1 [Example 56, (4-(7-(3-(2,3-dihydrobenzo[b][1,4]dioxin-6-yl)-2-methylphenyl)-[1,2,4]triazolo[4,3-a]pyridin-3-yl)benzyl)-D-proline] | 0.01 to 0.1 |
| OCCCNCc1ccc(-c2cccc(-c3cccc(-c4ccn5nc(CNCCCO)nc5c4)c3Cl)c2Cl)cc1 [Example 111, 3-(((2′,2″-dichloro-3″-(2-(((3-hydroxypropyl)amino)methyl)-[1,2,4]triazolo[1,5-a]pyridin-7-yl)-[1,1′:3′,1″-terphenyl]-4-yl)methyl)amino)propan-1-ol] | ≤ 0.01 |
| Cc1c(-c2ccn3c(-c4ccc(CN5CCC[C@@H]5C(=O)O)cc4)nnc3c2)cccc1-c1cccc(-c2cnc(CNCCO)cn2)c1C [Example 63, (4-(7-(3′-(5-(((2-hydroxyethyl)amino)methyl)pyrazin-2-yl)-2,2′-dimethyl-[1,1′-biphenyl]-3-yl)-[1,2,4]triazolo [4,3-α]pyridin-3-yl)benzyl)-D-proline] | 0.01 to 0.1 |

Source: US20260265248A1, “NOVEL PD-L1 INHIBITORS” (AFFIRMA BIOTECH S. L., priority 2023, published 2026)
